Like-named read-outs stand apart in the source and are kept apart here.
Tests used:
Ctenocephalides felis [1] = experiment: Ctenocephalides felis - oral test; format: in vivo; settings: 100 ppm in citrated cattle blood, after 2 days, adult cat fleas
Description: • Solvent: dimethyl sulphoxide To produce a suitable preparation of active compound, 10 mg of active compound are mixed with 0.5 ml of dimethyl sulphoxide. Dilution with citrated cattle blood gives the desired concentration. About 20 unfed adult cat fleas (Ctenocephalides felis) are placed into a chamber which is closed at the top and bottom with gauze. A metal cylinder whose bottom end is closed with parafilm is placed onto the chamber. The cylinder contains the blood/active compound preparation, which can be imbibed by the fleas through the parafilm membrane. After 2 days, the kill in % is determined. 100% means that all of the fleas have been killed; 0% means that none of the fleas have been killed.

[2] = log P by HPLC on a reversed-phase column (C 18), EEC Directive 79/831 Annex V.A8; format: physicochemical; settings: for LOGP_NEUTRAL: pH 7.8, 0.001 molar aqueous ammonium hydrogencarbonate/acetonitrile; for chromatographic logP: reversed-phase HPLC column (C 18)
Description: The log P values are measured according to EEC Directive 79/831 Annex V.A8 by HPLC (high-performance liquid chromatography) on a reversed-phase column (C 18). Temperature: 55° C.
The LC-MS determination in the acidic range is effected at pH 2.7 using 0.1% aqueous formic acid and acetonitrile (contains 0.1% formic acid) as eluents; linear gradient from 10% acetonitrile to 95% acetonitrile. Called log P (HCOOH) in the table.
LC-MS determination in the neutral range is effected at pH 7.8 with 0.001 molar aqueous ammonium hydrogencarbonate solution and acetonitrile as eluents; linear gradient from 10% acetonitrile to 95% acetonitrile. Called log P (neutral) in the table.
Calibration is carried out using unbranched alkan-2-ones (having 3 to 16 carbon atoms) with known log P values (log P values determined on the basis of the retention times by linear interpolation between two successive alkanones).

Musca domestica = Musca domestica test; format: in vivo; settings: after 2 days, adult houseflies
Description: • Solvent: dimethyl sulphoxide To produce a suitable preparation of active compound, 10 mg of active compound are mixed with 0.5 ml of dimethyl sulphoxide, and the concentrate is diluted with water to the desired concentration. Vessels containing a sponge treated with sugar solution and the active compound preparation of the desired concentration are populated with 10 adult houseflies (Musca domestica). After 2 days, the kill in % is determined. 100% means that all of the flies have been killed; 0% means that none of the flies have been killed.

Myzus persicae = Myzus persicae - spray test (Chinese cabbage leaf discs); format: in vivo; settings: 500 g/ha, after 5-6 days
Description: • Solvent: 78 parts by weight of acetone • 1.5 parts by weight of dimethylformamide • Emulsifier: alkylaryl polyglycol ether
(§1) To produce a suitable preparation of active compound, 1 part by weight of active compound is dissolved using the stated parts by weight of solvent and made up with water containing an emulsifier concentration of 1000 ppm until the desired concentration is attained. To produce further test concentrations, the preparation is diluted with emulsifier-containing water.
Discs of Chinese cabbage leaves (Brassica pekinensis) infested by all stages of the green peach aphid (Myzus persicae) are sprayed with an active compound preparation of the desired concentration.
After 5-6 days, the efficacy in % is determined. 100% means that all the aphids have been killed; 0% means that no aphids have been killed.

Spodoptera frugiperda = Spodoptera frugiperda - spray test; format: in vivo; settings: 500 g/ha, after 7 days, caterpillars on maize leaf discs
Description: (§2) • Solvent: 78.0 parts by weight of acetone • 1.5 parts by weight of dimethylformamide • Emulsifier: alkylaryl polyglycol ether
as §1
Leaf discs of maize (Zea mays) are sprayed with an active compound preparation of the desired concentration and, after drying, populated with caterpillars of the armyworm (Spodoptera frugiperda).
After 7 days, the efficacy in % is determined. 100% means that all the caterpillars have been killed; 0% means that no caterpillars have been killed.

Lucilia cuprina = Lucilia cuprina test; format: in vivo; settings: 100 ppm, after 2 days, L1 larvae
Description: • Solvent: dimethyl sulphoxide To produce a suitable preparation of active compound, 10 mg of active compound are mixed with 0.5 ml of dimethyl sulphoxide, and the concentrate is diluted with water to the desired concentration. About 20 L1 larvae of the Australian sheep blowfly (Lucilia cuprina) are transferred into a test vessel containing minced horsemeat and the active compound preparation of the desired concentration. After 2 days, the kill in % is determined. 100% means that all the larvae have been killed; 0% means that no larvae have been killed.

Ctenocephalides felis [3] = experiment: Ctenocephalides felis - in vitro contact tests with adult cat fleas; format: in vivo; settings: 5 μg/cm^2 (=500 g/ha), after 48 h, adult cat fleas dead or moribund
Description: For the coating of the test tubes, 9 mg of active compound are first dissolved in 1 ml of acetone p.a. and then diluted to the desired concentration with acetone p.a. 250 μl of the solution are distributed homogeneously on the inner walls and the base of a 25 ml test tube by turning and rocking on an orbital shaker (rocking rotation at 30 rpm for 2 h). With 900 ppm active compound solution and internal surface 44.7 cm^2, given homogeneous distribution, an area-based dose of 5 μg/cm^2 is achieved.
After the solvent has evaporated off, the tubes are populated with 5-10 adult cat fleas (Ctenocephalides felis), sealed with a perforated plastic lid and incubated in a horizontal position at room temperature and ambient humidity. After 48 h, efficacy is determined. To this end, the test tubes are stood upright and the fleas are knocked to the base of the tube. Fleas which remain motionless at the base or move in an uncoordinated manner are considered to be dead or moribund.
100% efficacy means that all the fleas were dead or moribund. 0% efficacy means that no fleas were harmed.

Phaedon cochleariae = Phaedon cochleariae - spray test; format: in vivo; settings: 500 g/ha, after 7 days, larvae on Chinese cabbage leaf discs
Description: as §2, §1
After 7 days, the efficacy in % is determined. 100% means that all the beetle larvae have been killed; 0% means that no beetle larvae have been killed.

[4] = acidic range, pH 2.7, 0.1% aqueous formic acid/acetonitrile, 55° C.
[5] = neutral range, pH 7.8, value in preparation example text, read-out: log P (neutral)
[6] = acidic range, pH 2.7, 0.1% aqueous formic acid/acetonitrile, 55° C., read-out: LOGP_HCOOH

Row | SMILES | LOGP_HCOOH [2, 4] | LOGP_NEUTRAL ([2]; neutral range, 55° C.) | chromatographic logP [2, 5] | chromatographic logP [2, 6] | efficacy (kill) (Ctenocephalides felis [1]) [%] | efficacy (kill) (Musca domestica; 4 ppm) [%] | efficacy (Myzus persicae) [%] | efficacy (Spodoptera frugiperda) [%] | efficacy (kill) (Lucilia cuprina) [%] | efficacy (Ctenocephalides felis [3]) [%] | efficacy (Phaedon cochleariae) [%] | efficacy (kill) (Musca domestica; 20 ppm) [%]
1 | CCSc1c(-c2nc3cc(C(F)(F)F)ncc3n2C)nc2ccccn12 [Example I-2, 2-(3-Ethylsulphanylimidazo[1,2-a]pyridin-2-yl)-3-methyl-6-(trifluoromethyl)imidazo[4,5-c]pyridine] |  | 2.75 | 2.75 | 2.84 |  |  | 90 |  |  |  |  | 
2 | CCS(=O)(=O)c1c(-c2nc3cc(C(F)(F)F)ncc3n2C)nc2ccc(C(F)(F)F)cn12 [Example I-6] | 3.09 | 3.06 |  |  | 100 |  | 90 | 100 | 100 | 100 | 100 | 90
3 | CC[S+]([O-])c1c(-c2nc3cc(C(F)(F)F)ncc3n2C)nc2ccc(Cl)cn12 (stereo not drawn) [Example I-7] | 2.93 | 2.83 |  |  |  |  | 90 | 100 |  |  |  | 
4 | CC[S+]([O-])c1c(-c2nc3cc(C(F)(F)F)ccc3n2C)nc2ccccn12 (stereo not drawn) [Example I-11] | 2.92 | 2.85 |  |  |  |  | 90 | 100 |  |  | 100 | 
5 | CCS(=O)(=O)c1c(-c2nc3cc(C(F)(F)F)ncc3n2C)nc2cc(C(F)(F)F)ccn12 [Example I-17] | 3.00 | 2.98 |  |  | 100 | 80 | 100 | 100 | 100 | 100 | 100 | 
6 | CCS(=O)(=O)c1c(-c2nc3cc(C(F)(F)F)ncc3n2C)nc2cccc(C(F)(F)F)n12 [Example I-21] | 2.69 | 2.66 |  |  |  |  | 100 | 100 |  |  | 100 | 
7 | CC[S+]([O-])c1c(-c2nc3cc(C(F)(F)F)ncc3n2C)nc2cccc(C(F)(F)F)n12 (stereo not drawn) [Example I-22] | 2.30 | 2.30 |  |  |  |  | 90 |  |  |  | 100 | 
8 | CCS(=O)(=O)c1c(-c2nc3cc(C(F)(F)F)ccc3n2C)nc2cc(C)ccn12 [Example I-33] | 3.01 |  |  |  |  |  |  | 83 |  | 100 |  | 
9 | CCS(=O)(=O)c1c(-c2nc3cc(C(F)(F)F)ccc3n2C)nc2cc(C(F)(F)F)ccn12 [Example I-34] | 3.72 |  |  |  |  |  |  | 100 |  | 100 | 100 | 
10 | CCS(=O)(=O)c1c(-c2nc3cc4c(cc3n2C)OC(F)(F)O4)nc2ccccn12 [Example I-41, 6-[3-(Ethylsulphonyl)imidazo[1,2-a]pyridin-2-yl]-2,2-difluoro-5-methyl-5H-[1,3]dioxolo[4,5-f]benzimidazole] |  | 2.62 | 2.62 | 2.59 |  |  | 90 | 83 |  |  | 100 | 
11 | CCS(=O)(=O)c1c(-c2nc3cc(C(F)(F)F)ccc3n2C)nc2cccc(C)n12 [Example I-46] | 2.73 |  |  |  |  |  | 90 |  |  |  | 83 | 
12 | CCS(=O)(=O)c1c(-c2nc3cc(C(F)(F)F)cnc3n2C)nc2ccc(C)cn12 [Example I-53] | 2.84 | 2.78 |  |  |  |  | 100 | 100 |  |  |  | 

Now from value to compound, other results behind:

Row | LOGP_HCOOH [2, 4] | LOGP_NEUTRAL ([2]; neutral range, 55° C.) | chromatographic logP [2, 5] | chromatographic logP [2, 6] | SMILES | efficacy (kill) (Ctenocephalides felis [1]) [%] | efficacy (kill) (Musca domestica; 4 ppm) [%] | efficacy (Myzus persicae) [%] | efficacy (Spodoptera frugiperda) [%] | efficacy (kill) (Lucilia cuprina) [%] | efficacy (Ctenocephalides felis [3]) [%] | efficacy (Phaedon cochleariae) [%] | efficacy (kill) (Musca domestica; 20 ppm) [%]
13 | 2.08 | 2.05 | 2.07 |  | CCS(=O)(=O)c1c(-c2nc3cc(C(F)(F)F)ncc3n2C)nc2ccccn12 [Example I-1, 2-(3-Ethylsulphonylimidazo[1,2-a]pyridin-2-yl)-3-methyl-6-(trifluoromethyl)imidazo[4,5-c]pyridine] | 98 | 85 | 90 | 100 | 100 | 100 | 83 | 
14 | 2.67 | 2.61 |  |  | CCS(=O)(=O)c1c(-c2nc3cc(C(F)(F)F)ncc3n2C)nc2ccc(Cl)cn12 [Example I-4] | 90 | 80 | 90 | 100 | 100 | 100 |  | 
15 | 2.56 | 2.50 |  |  | CCS(=O)(=O)c1c(-c2nc3cc(C(F)(F)F)ncc3n2C)nc2c(Cl)cccn12 [Example I-19] |  |  | 90 | 100 |  |  | 100 | 
16 | 2.66 | 2.64 |  |  | CCS(=O)(=O)c1c(-c2nc3cc(C(F)(F)F)ncc3n2C)nc2cc(Cl)ccn12 [Example I-23] |  |  |  | 100 |  | 100 | 100 | 
17 | 2.43 | 2.36 |  |  | CCS(=O)(=O)c1c(-c2nc3cc(C(F)(F)F)ncc3n2C)nc2ccc(C)cn12 [Example I-48] |  |  | 90 | 100 |  |  |  | 
18 | 2.41 | 2.37 |  |  | CCS(=O)(=O)c1c(-c2nc3cc(C(F)(F)F)ncc3n2C)nc2ccc(OC)cn12 [Example I-54] |  |  | 90 | 100 |  |  |  | 

Source: patent publication US10188108B2, “Fused bicyclic heterocycle derivatives as pesticides” (BAYER CROPSCIENCE AKTIENGESELLSCHAFT, priority 2015, dated 2019)
